Data reported in patent US4013449A, “Method of controlling weed growth in a paddy field” (priority 1974, dated 1977).
“Also recorded” adds a separate entry of the source.

How the values were obtained:
rice plant [1] = assay: Reference Experiment 2: foliage treatment, phytotoxicity of rice plant; assay type: in vivo; settings: DCPA 1000 ppm alone
Source text: In unglazed pots having diameters of 9 cm, diluvium clay loam was filled and rice seeds and barnyard grass seeds were sowed and grown. […] The phytotoxicity of rice and herbicidal effect on barnyard grass were observed 20 days from the treatment.

[2] = Experiment 3: decomposition of DCPA in soil; assay type: physicochemical; settings: Alluvium loam soil, DCPA 100 g/are; for inhibition of the decomposition of DCPA in soil: NAC 3.3 g/are
Procedure: The method of this invention is treatment in flooded water. Accordingly, transfer of the active ingredients into the soil of the paddy field is unavoidable. The decompositions of the active ingredients in the paddy soil were measured.
Soil: Alluvium loam soil
The active ingredients were uniformly mixed in a 5 mm
Analysis: The concentrations of DCPA were
measured by gas chromatography in […]

barnyard grass [3] = assay: Example 1: usual transplanting culture, paddy field, poured into flooded water, herbicidal effect on barnyard grass; assay type: in vivo, Echinochloa crusgalli; settings: for Herbicidal effect, barnyard grass: 3 weeks; for herbicidal effect to barnyard grass and broadleaf weeds: poured into flooded water; for Herbicidal effect, barnyard grass: key: 5: complete control; 4: excellent effect; 3: large effect; 2: fair effect; 1: small effect; 0: no effect
Source text: (§1) DCPA and β-NAC were separately crushed into fine powders by a jetmizer. The crushed DCPA and β-NAC were mixed in ratios of 80 : 1; 40 : 1; 20 : 1 and 10 : 1 together with a dispersing agent (Sorpol 5039 manufactured by Toho Chemical Co. and Rapizol BB-74 manufactured by Nippon Fat & Oil Co.) to form a wettable powder. The compositions were applied under the following conditions in a paddy field of Ishigakijima, Okinawa-Ken, Japan.
(§2) 1. Plot size: Two replications, each 1 m^2 per division
(§3) 2. Culturing method: Usual transplanting
(§4) 3. Rice variety: Taichu 65
(§5) 5 - 6 leaf stage of rice plants at the transplanting;
(§6) a. Treating time Mar. 16, 1974 (17 days after transplanting)
(§7) 2 - 2.5 leaf stage of barnyard grass
(§8) Each composition was diluted with 50 cc of water and the solution was poured in the rows by using a watering pot
(§9) Barnyard grass (Echinochloa crusgalli);
(§10) After 3 weeks from the treatment, the herbicidal effect and the phytotoxicity were observed.

broadleaf weeds [4] = assay: Example 1: usual transplanting culture, paddy field, poured into flooded water, herbicidal effect on broadleaf weeds; assay type: in vivo; settings: 3 weeks; note: key: 5: complete control; 4: excellent effect; 3: large effect; 2: fair effect; 1: small effect; 0: no effect
Source text: as §1, §2, §3, §4, §5, §6, §7, §8
Monochoria vaginalis (Burm fil) Presl;
Dopatrium junceum (Roxb) Hamilt;
Rotala indica (Willd) koehne;
Eleocharis acicularis Roem et Schult;
as §10

rice plant [5] = assay: Example 1: usual transplanting culture, paddy field, phytotoxicity to rice plant; assay type: in vivo, Taichu 65; parameters: key: X: killed; ++++: serious damage; +++: high damage; ++: middle damage; +: low damage; ±: quite low damage; -: no damage; settings: 3 weeks
Source text: as §1, §2, §3, §4, §5, §6, §7, §8, §10

barnyard grass [6] = assay: Example 2: mechanical transplanting using young seedlings, poured into flooded water, herbicidal effect on barnyard grass; assay type: in vivo, Echinochloa crusgalli; settings: for Herbicidal Effect, BG: 20 days; for Herbicidal Effect, BG: key: 5: complete control; 4: excellent effect; 3: large effect; 2: fair effect; 1: small effect; 0: no effect
Procedure: (§11) The tests were conducted by using the compositions of Example 1 in the paddy field of Ishigakijima, Okinawa-Ken, Japan.
(§12) 1. Plot size: Two replications each 1 m^2 per division.
(§13) 2. Culturing method: Mechanical transplanting using young seedlings
(§14) 3. Rice variety: Nihonbare
(§15) 4. Transplanting: Apr. 8, 1974
(§16) 2.3 - 3 leaf stage of rice at the transplanting;
(§17) 5. Depth of water: 3 - 5 cm
(§18) A. first treatment: Apr. 19, 1974
(§19) (16 days after transplanting)
as §7
(§20) B. second treatment: Apr. 23, 1974
(§21) (20 days after transplanting)
(§22) 3 - 3.5 leaf stage of barnyard grass.
(§23) Each composition was diluted with 50 cc of water and the solution was poured in the rows by using a watering pot.
as §9
(§24) After 20 days from the treatment (the first treatment and the second treatment), the herbicidal effects and the condition of the rice were observed.

broadleaf weeds [7] = assay: Example 2: mechanical transplanting using young seedlings, poured into flooded water, herbicidal effect on broadleaf weeds; assay type: in vivo; settings: 20 days; note: key: 5: complete control; 4: excellent effect; 3: large effect; 2: fair effect; 1: small effect; 0: no effect
Procedure: as §11, §12, §13, §14, §15, §16, §17, §18, §19, §7, §20, §21, §22, §23
Monochoria vaginalis (Burm fil) Presel;
Rotala indica (Willd) Koehne;
Scirpus juncoides Roxb; and
as §24

Insecticidal effect = settings: in vivo
house fly = assay: LD50 to house fly (Table 1); settings: addition of piperinyl butoxide
larva of mosquito = assay: LD50 to larva of mosquito (Table 1); settings: read-out: LD50 to larva of mosquito
[8] = A: 2 - 2.5 leaf stage, DCPA 60 g/are, β-NAC none
[9] = B: 3 - 3.5 leaf stage, DCPA 60 g/are, β-NAC none
[10] = A: 2 - 2.5 leaf stage, DCPA none, β-NAC 4.0 g/are
[11] = B: 3 - 3.5 leaf stage, DCPA none, β-NAC 4.0 g/are

CCC(=O)Nc1ccc(Cl)c(Cl)c1 [DCPA, 3,4-dichloropropionanilide, reference compound]
Phytotoxicity to rice plants (rice plant [1]): not found
minimum residues of DCPA in soil ([2]; α-NAC or β-NAC 3.3 g/are where combined, gas chromatography): 4 days
Herbicidal effect, barnyard grass (barnyard grass [3]; DCPA 60 g/are, β-NAC none): 0
herbicidal effect to barnyard grass and broadleaf weeds (barnyard grass [3]; DCPA 60 g/are): no herbicidal effect
Herbicidal effect, broadleaf weeds (broadleaf weeds [4]; DCPA 60 g/are, β-NAC none): 0
Phytotoxicity to rice plant (rice plant [5]; DCPA 60 g/are, β-NAC none): -
Herbicidal Effect, BG (barnyard grass [6]; [8]): 0
Herbicidal Effect, BG (barnyard grass [6]; [9]): 0
herbicidal effect (barnyard grass [6]; DCPA 60 g/are, 2 - 2.5 and 3 - 3.5 leaf stage of barnyard grass): no herbicidal effect was found
Herbicidal Effect, BLW (broadleaf weeds [7]; [8]): 0
Herbicidal Effect, BLW (broadleaf weeds [7]; [9]): 0

CNC(=O)Oc1cccc2ccccc12 [α-NAC, α-naphthyl-N-methyl carbamate]
inhibition of the decomposition of DCPA in soil [2]: inhibit the decomposition of DCPA

CNC(=O)Oc1ccc2ccccc2c1 [β-NAC, β-naphthyl-N-methyl carbamate]
insecticidal effect (Insecticidal effect): low insecticidal effect; also recorded: no insecticidal effect
inhibition of the decomposition of DCPA in soil [2]: higher effect for inhibiting the decomposition of DCPA
Herbicidal effect, barnyard grass (barnyard grass [3]; DCPA none, β-NAC 4.0 g/are): 0
herbicidal effect to barnyard grass and broadleaf weeds (barnyard grass [3]; β-NAC 4 g/are): no herbicidal effect
Herbicidal effect, broadleaf weeds (broadleaf weeds [4]; DCPA none, β-NAC 4.0 g/are): 0
Phytotoxicity to rice plant (rice plant [5]; DCPA none, β-NAC 4.0 g/are): -
Herbicidal Effect, BG (barnyard grass [6]; [10]): 0
Herbicidal Effect, BG (barnyard grass [6]; [11]): 0
Herbicidal Effect, BLW (broadleaf weeds [7]; [10]): 0
Herbicidal Effect, BLW (broadleaf weeds [7]; [11]): 0
LD50 to house fly (house fly): 12.5 µg/g
LC50 (larva of mosquito): > 10 µg/mL
